In US20050288347A1, “Certain triazole-based compounds, compositions, and uses thereof” (priority 2004, published 2005):
“Also recorded” adds a separate entry of the source.

molecular target: protein kinase; test: HTS ATP-utilizing enzyme assay, off-chip mobility-shift format (Caliper HTS 250); format: biochemical, human; settings: kinase(s) for which the compound exhibits protein kinase inhibitory activity; test compound 10 μM; active = greater than three-sigma from the mean activity of inactive compounds
Summary of the method: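 Single-point screen at 10 μM compound in HEPES pH 7.5 buffer with Triton X-100 and BSA, 2.5 h at 20–22 °C. Substrate-to-phosphopeptide ratio measured by off-chip microfluidic mobility shift; EDTA wells as 100% and DMSO wells as 0% control, hits called at three-sigma limits.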

Kinase	SMILES
AURORA-A	Cn1c(SCC(=O)c2ccc3c(c2)OCCO3)nnc1-c1ccc(S(=O)(=O)N2CCOCC2)cc1
GSK3-β and SGK1	O=C(CSc1nnc(-c2ccc(O)cc2)n1CC1CCCO1)c1ccc2c(c1)OCCO2 (stereo not drawn)
GSK3-β and GSK3-α and MSK1	Cn1c(SCC(=O)c2ccc3c(c2)OCCO3)nnc1-c1ccc(O)cc1
DYRK2	CCCn1c(SCC(=O)c2ccc3c(c2)OCCO3)nnc1-c1ccco1
PDGFRR-α and FLT-3 and FYN	CCn1c(SCC(=O)c2cc(OC)ccc2OC)nnc1C(C)C
MSK2 and FYN and HCK	Cn1c(SCC(=O)c2ccc(O)c(O)c2)nnc1-c1ccccc1
FYN	CCOc1ccc(Nc2nnc(SCC(=O)c3cc(C(C)(C)C)c(O)c(C(C)(C)C)c3)n2-c2ccc(OCC)cc2)cc1
LYNA	Cc1ccc(-n2c(CNc3cccc(Cl)c3)nnc2SCC(=O)c2ccc(Cl)cc2)cc1
AURORA-A	O=C(CSc1nnc(-c2cc3ccccc3cc2O)n1Cc1ccco1)c1ccc(F)cc1
AKT1	COCCn1c(SCC(=O)O)nnc1-c1cc2c(C)nn(-c3ccccc3)c2s1
AKT1	COCCn1c(SCC(=O)c2ccccc2)nnc1-c1ccc(OC)cc1
AURORA-A	COc1ccccc1-n1c(SCC(=O)O)nnc1-c1cccnc1
FYN	O=C(CSc1nnc(CCN2CCOCC2)n1-c1ccc(F)cc1)c1ccccc1
CDK2-cyclinA and CDK2-cyclinE and CDK1	COc1ccc(-n2c(SCC(=O)O)nnc2-c2ccc(NS(=O)(=O)c3ccc(C)cc3)cc2)cc1
PDGFRR-α and FYN	COc1ccc(NCc2nnc(SCC(=O)O)n2-c2ccc(OC)cc2)cc1
AURORA-A	COc1ccc(-n2c(COc3ccc4ccccc4c3)nnc2SCC(=O)O)cc1
AURORA-A	COc1ccc(-n2c(COc3cccc(C)c3)nnc2SC(C)C(=O)O)cc1 (stereo not drawn)
AURORA-A	COc1ccc(C(=O)CSc2nnc(-c3cc4ccccc4cc3O)n2Cc2ccco2)cc1
GSK3-β; also recorded: GSK3-α	O=C(O)CSc1nnc(-c2ccc(O)cc2)n1Cc1ccco1
GSK3-β and GSK3-α and MSK2	O=C(CSc1nnc(-c2ccc(O)cc2)n1Cc1ccco1)c1ccccc1
SRC and AURORA-A	O=C(O)CSc1nnc(CNc2cccc(C(F)(F)F)c2)n1Cc1ccco1
GSK3-α	O=C(CSc1nnc(-c2ccc(O)cc2)n1Cc1ccccc1)c1ccccc1
MSK1	COc1cccc(OCc2nnc(SCC(=O)O)n2Cc2ccccc2)c1

Kinase	SMILES
HCK	Cc1cc(OCc2nnc(SCC(=O)O)n2Cc2ccccc2)ccc1Cl
DAPK1	CC(Sc1nnc(CNc2ccc(Cl)cc2)n1Cc1ccccc1)C(=O)O (stereo not drawn)
DAPK1	O=C(O)CSc1nnc(CNc2ccc(F)cc2)n1Cc1ccccc1
FYN	CCn1c(SCC(=O)O)nnc1-c1cc2c(C)nn(-c3ccccc3)c2s1
MSK1 and MSK2 and GSK3-β	CCn1c(SCC(=O)c2cccs2)nnc1-c1ccc(O)cc1
AKT1	CCn1c(COc2ccc(OC)cc2)nnc1SCC(=O)O
PKA and MAPKAPK-2 and MSK1	CCn1c(SCC(=O)c2ccc(OC)cc2)nnc1-c1ccncc1
CDK2-cyclinA; also recorded: AURORA-A	Cn1c(COc2cccc3ccccc23)nnc1SCC(=O)O
PDGFRR-α	COc1ccc(OC)c(C(=O)CSc2nnc(-c3ccccc3N)n2C)c1
AURORA-A	COc1ccc(-n2c(SCC(=O)O)nnc2-c2ccccc2OC)cc1
AURORA-A	CCn1c(SCC(=O)c2ccc(C)cc2)nnc1-c1ccc(S(=O)(=O)N2CCCCCC2)cc1
CHEK2	O=C(O)CSc1nnc(-c2ccc(S(=O)(=O)N3CCOCC3)cc2)n1-c1ccccc1
CHEK2	COc1ccc(-n2c(SCC(=O)O)nnc2-c2ccc(NC(=O)c3ccccc3)cc2)cc1
CHEK2; also recorded: AURORA-A	COc1ccc(-n2c(SC(C)C(=O)O)nnc2-c2ccc(NC(=O)c3ccccc3)cc2)cc1 (stereo not drawn)
GSK3-β; also recorded: MAPKAPK-2	COc1ccc(-n2c(SC(C)C(=O)O)nnc2-c2ccc(O)cc2)cc1 (stereo not drawn)
GSK3-β and GSK3-α and MSK1	Cn1c(SCC(=O)c2ccccc2)nnc1-c1ccc(O)cc1
GSK3-α	O=C(CSc1nnc(-c2ccc(O)cc2)n1-c1ccccc1)c1ccccc1
PDGFRR-α	O=C(O)CSc1nnc(-c2ccc([N+](=O)[O-])cc2)n1CC1CCCO1 (stereo not drawn)
CHEK2	COCCCn1c(SCC(=O)O)nnc1-c1ccc(C(C)(C)C)cc1
PDGFRR-α	CCn1c(CNc2ccc(C)c(Cl)c2)nnc1SCC(=O)O
CDK2-cyclinA	CCn1c(CNc2cccc(Cl)c2)nnc1SCC(=O)O
AURORA-A	Cn1c(COc2ccc(Br)cc2)nnc1SCC(=O)O
MSK1	CCn1c(COc2ccc(Cl)c(C)c2)nnc1SCC(=O)O

Kinase	SMILES
AURORA-A	Cc1cc(OCc2nnc(SC(C)C(=O)O)n2-c2ccccc2)ccc1Cl (stereo not drawn)
FYN	CCOc1ccc(NCc2nnc(SCC(=O)O)n2-c2ccc(C)cc2)cc1
DAPK1; also recorded: AURORA-A	Cc1ccc(-n2c(CNc3ccc(F)cc3)nnc2SCC(=O)O)cc1
PAK2	COc1ccc(OCc2nnc(SCC(=O)c3ccccc3)n2C)cc1
AURORA-A	COc1ccc(OCc2nnc(SCC(=O)O)n2-c2ccc(C)cc2)cc1
FYN( and PDGFRR-α	COc1ccc(NCc2nnc(SC(C)C(=O)O)n2-c2ccccc2)cc1 (stereo not drawn)
AKT1	Cc1ccc(-n2c(COc3cccc4ccccc34)nnc2SC(C)C(=O)O)cc1 (stereo not drawn)
PDGFRR-α	COc1ccc(-n2c(CNc3ccc(C)cc3)nnc2SCC(=O)O)cc1
CHEK2 and SYK	COc1ccc(C(=O)CSc2nnc(CNc3ccc(C)cc3)n2-c2ccccc2)cc1
GSK3-α	O=C(CSc1nnc(Cc2ccccc2)[nH]1)c1ccc2c(c1)OCCO2
SYK	COc1ccc(C(=O)CSc2nnc(C3CCCCC3)n2C)cc1
AURORA-A and FYN	Cn1c(SCC(=O)c2ccc3c(c2)OCCO3)nnc1C1CC1
DYRK2; also recorded: GSK3-α	CC(C)(C)c1nnc(SCC(=O)c2ccc3c(c2)OCCO3)[nH]1
FLT-3	C=CCn1c(Sc2c(O)nc3ccccc3c2-c2ccccc2)nnc1-c1ccc(Cl)c(Cl)c1
C-TAK1	COc1cccc(OC(=O)CSc2nnc(CNc3c(C)cccc3C)n2-c2ccccc2)c1
AURORA-A	O=C(CSc1nnc(-c2cccnc2)n1-c1ccccc1)CC(=O)Nc1ccccc1
AURORA-A	Cc1ccc(-n2c(SCC(=O)CC(=O)Nc3ccccc3)nnc2-c2cccnc2)cc1
GSK3-β	Cn1c(SCSC#N)nnc1-c1ccc(S(=O)(=O)N2CCOCC2)cc1
AURORA-A	O=C(CSc1nnc(-c2cccnc2)n1Cc1ccccc1)CC(=O)Nc1ccccc1
AURORA-A	Cn1c(SCC(=O)CC(=O)Nc2ccccc2)nnc1-c1ccc(O)cc1
AURORA-A; also recorded: GSK3-α	O=C(CSc1nnc(-c2ccc(O)cc2)n1-c1ccccc1)CC(=O)Nc1ccccc1
GSK3-α; also recorded: GSK3-β	CCn1c(S)nnc1-c1ccc(S(=O)(=O)N2CCN(C)CC2)cc1
GSK3-α	O=c1c(Sc2nnc(-c3ccccc3)n2C2CCCCC2)c(Br)cnn1-c1ccccc1

Kinase	SMILES
GSK3-α	COc1cc(C(=O)CSc2nnc(-c3ccc(O)cc3)n2Cc2ccco2)ccc1NC(C)=O
GSK3-β; also recorded: GSK3-α	CCC(=O)Nc1ccc(C(=O)CSc2nnc(-c3ccc(O)cc3)n2Cc2ccco2)cc1OC
GSK3-α	O=C(CSc1nnc(-c2ccccc2O)n1Cc1ccco1)OCc1ccccc1
KIT	COc1ccccc1-n1c(SCC(=O)OCc2ccccc2)nnc1-c1ccccc1O
CDK2-cyclinE and MSK1	COCCCn1c(SCC(=O)OCc2ccccc2)nnc1-c1ccc(OC)cc1
GSK3-α; also recorded: AURORA-A	COc1ccccc1-n1c(SCC(=O)OCc2ccccc2)nnc1-c1ccco1
FLT-3	COc1ccc(-c2nnc(SCC(=O)OC3CCCCCC3)n2-c2cccc(C(F)(F)F)c2)cc1
GSK3-α; also recorded: GSK3-β	O=C(CSc1nnc(-c2ccc(O)cc2)n1Cc1ccccc1)OC1CCCCC1
DAPK1	COCCn1c(SCC(=O)OC2CCCCC2)nnc1-c1cc2ccccc2cc1O
GSK3-α	Cn1c(SCC(=O)OC2CCCCC2)nnc1-c1ccc(O)cc1
PAK2 and CHEK1	Cc1ccc(NCc2nnc(SCC(=O)OC3CCCCC3)n2-c2ccccc2)cc1Cl
GSK3-β; also recorded: GSK3-α	CCOC(=O)CSc1nnc(-c2ccc(O)cc2)n1Cc1ccco1
MAPKAPK-2	CCOC(=O)CSc1nnc(COc2ccc3ccccc3c2)n1C
AURORA-A	CCOC(=O)CSc1nnc(-c2ccccc2O)n1-c1ccccc1OC
FYN	CCOC(=O)CSc1nnc(-c2cc3ccccc3cc2O)n1C
DYRK2	CCOC(=O)CSc1nnc(CNc2cc(Cl)ccc2Cl)n1CC
CHEK2	CCOC(=O)CSc1nnc(CNc2ccc(C)c(Cl)c2)n1CC1CCCO1 (stereo not drawn)
FYN and CDK2-cyclinE	COc1ccc(NCc2nnc(SCC(=O)OC(C)C)n2-c2ccc(OC)cc2)cc1
AKT1	CC(C)OC(=O)CSc1nnc(-c2cccnc2)n1Cc1ccco1
FYN	COCCn1c(SCC(=O)OC(C)C)nnc1-c1cc2ccccc2cc1O
PDGFRR-α and FYN	COC(=O)CSc1nnc(CNc2ccc(OC)cc2)n1C
PDGFRR-α	COC(=O)CSc1nnc(CNc2ccc(OC)cc2)n1-c1ccccc1
CDK2-cyclinA and CDK1 and CHEK2	CCn1c(CNc2cccc(C(F)(F)F)c2)nnc1SCC(=O)Oc1ccc(C)cc1

SMILES	Kinase
O=C(CSc1nnc(-c2cccc(C(F)(F)F)c2)[nH]1)c1ccc2c(c1)OCCO2	AURORA-A; also recorded: GSK3-α; also recorded: FLT-3
Cc1cccc(-c2nnc(SCC(=O)c3ccc4c(c3)OCCO4)[nH]2)c1	FLT-3; also recorded: GSK3-α; also recorded: AURORA-A
COc1ccc(NCc2nnc(S)n2-c2ccc(OC)cc2)cc1	PDGFRR-α; also recorded: AURORA-A; also recorded: GSK3-α
Cn1c(SCC(=O)OC2CCCCC2)nnc1-c1cc2ccccc2cc1O	AURORA-A; also recorded: DAPK1; also recorded: c-TAK1
